The target in test [1] is T1, C-X-C chemokine receptor type 3 (Homo sapiens, UniProt P49682).
T1 sequence (P49682 whole entry): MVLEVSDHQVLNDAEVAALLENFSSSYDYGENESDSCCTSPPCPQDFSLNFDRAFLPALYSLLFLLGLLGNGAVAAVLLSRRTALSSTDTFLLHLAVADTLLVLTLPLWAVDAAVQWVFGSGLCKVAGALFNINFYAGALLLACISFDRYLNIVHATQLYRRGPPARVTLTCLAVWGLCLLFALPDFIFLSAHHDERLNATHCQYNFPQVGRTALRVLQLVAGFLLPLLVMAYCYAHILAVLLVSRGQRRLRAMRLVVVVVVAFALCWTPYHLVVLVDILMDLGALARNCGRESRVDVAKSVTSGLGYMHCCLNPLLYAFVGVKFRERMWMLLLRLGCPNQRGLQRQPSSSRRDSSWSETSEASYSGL
Briefly: Displacement of [125I]-CXCL10 from human CXCR3 expressed in HEK293 cells. The test is classed as cell-based. (Loss of bound radioactivity is the signal in a displacement assay; it reports binding, not function.)

Test [2] has as its target T2, C-X-C chemokine receptor type 3 (Homo sapiens) (UniProt P49682).
T2 sequence (whole entry): T1 sequence (P49682 whole entry)
Briefly: Antagonist activity at human CXCR3 expressed in HEK293T cells co-expressing Galphaqi5 assessed as inhibition of CXCL10-induced [3H]-inositolphosphates levels. In kind it is functional, cell-based. To be noted: HEK-293T.

The target in test [3] is T1, C-X-C chemokine receptor type 3. Briefly: Displacement of [125I]-CXCL11 from human CXCR3 expressed in HEK293 cells. In kind it is cell-based.

This note sets out measurements from ChEMBL document CHEMBL2203150, “CXCR3 antagonists: quaternary ammonium salts equipped with biphenyl- and polycycloaliphatic-anchors” (Bioorg Med Chem, 2011).

The Ki is the equilibrium dissociation constant of an inhibitor or competing ligand from its target. A low value points to higher affinity. A word on the pKb: it is −log10 of the Kb, conventionally taken in molar units.

Regarding `CC1(C)[C@H]2CC=C(C[N+](C)(C)Cc3ccc(Cl)cc3)[C@@H]1C2`, the Ki is 200 nM in test [1] and 501 nM in test [3]. Besides, the pKb in test [2] worked out at 6.3.
As to `CC1(C)[C@H]2CC=C(C[N+](C)(C)Cc3ccc(-c4ccsc4)cc3)[C@@H]1C2`, the inhibitory constant (Ki) in test [1] was 200 nM; in test [3], 316 nM. For the same compound, the pKb in test [2] stood at 6.4.
In the same order, the values of `CC1(C)[C@H]2CC=C(C[N+](C)(C)Cc3ccc(I)cc3)[C@@H]1C2` are 251 nM, 398 nM and 6.6.
As to `CC1(C)[C@H]2CC=C(C[N+](C)(C)Cc3ccc(-c4cccc(Cl)c4)cc3)[C@@H]1C2`, the results for the Ki in test [1] and in test [3] were 126 nM and 316 nM, respectively. The pKb in test [2] came to 6.3.
